Experimental data: PubChem BioAssay (NCI)
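Abbreviation: GI50, concentration required for 50% inhibition of growth.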

Tested on: HL-60(TB) leukemia
Experiment: growth of human tumour cells (NCI), 384-well format

For CNNCc1ccc(C(=O)NC(C)C)cc1, the GI50 was 12.2 µM.
